Publication PMC6321168, “Comparative Study on Excretive Characterization of Main Components in Herb Pair Notoginseng-Safflower and Single Herbs by LC–MS/MS” (Pharmaceutics, 2018)

Assay: Urinary excretion study in rats after oral NS, SF or CNS (LC–MS/MS)
Format: in vivo
Conditions: for concentration at 2 h / concentration at 4 h / concentration at 8 h / concentration at 12 h / concentration at 24 h / concentration at 36 h / concentration at 48 h / concentration at 72 h / concentration at 96 h / concentration at 120 h / concentration at 6 h: male, Sprague Dawley, rat, urine, oral; for Accumulative excretion amount / Accumulative excretion percentage / Excretion amount: rat urine
In short: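 Analytes were quantified by UFLC with negative electrospray MRM detection in urine collected up to 120 h. Doses were oral: 60 mg/kg NS, 50 mg/kg SF, or the combination, each to six fasted male rats. Results are reported as % cumulative excretion relative to the amount ingested.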

CC(C)=CCC[C@](C)(O[C@@H]1O[C@H](CO)[C@@H](O)[C@H](O)[C@H]1O)[C@H]1CC[C@]2(C)[C@@H]1[C@H](O)C[C@@H]1[C@@]3(C)CC[C@H](O)C(C)(C)[C@@H]3[C@@H](O[C@@H]3O[C@H](CO)[C@@H](O)[C@H](O)[C@H]3O)C[C@]12C [ginsenoside Rg1]
concentration at 2 h (60 mg/kg, oral NS 60 mg/kg, 2 h): 3360 ± 7020 ng/mL
concentration at 4 h (60 mg/kg, oral NS 60 mg/kg, 4 h): 1680 ± 1800 ng/mL
concentration at 8 h (60 mg/kg, oral NS 60 mg/kg, 8 h): 1140 ± 1230 ng/mL
concentration at 12 h (60 mg/kg, oral NS 60 mg/kg, 12 h): 727 ± 171 ng/mL
concentration at 24 h (60 mg/kg, oral NS 60 mg/kg, 24 h): 135 ± 209 ng/mL
concentration at 36 h (60 mg/kg, oral NS 60 mg/kg, 36 h): 115 ± 151 ng/mL
concentration at 48 h (60 mg/kg, oral NS 60 mg/kg, 48 h): 100 ± 171 ng/mL
concentration at 72 h (60 mg/kg, oral NS 60 mg/kg, 72 h): 178 ± 382 ng/mL
concentration at 96 h (60 mg/kg, oral NS 60 mg/kg, 96 h): 85 ± 159 ng/mL
concentration at 120 h (60 mg/kg, oral NS 60 mg/kg, 120 h): 59 ± 105 ng/mL
concentration at 2 h (oral CNS 110 mg/kg, 2 h): 1510 ± 1440 ng/mL
concentration at 4 h (oral CNS 110 mg/kg, 4 h): 1690 ± 2340 ng/mL
concentration at 6 h (oral CNS 110 mg/kg, 6 h): 544 ± 216 ng/mL
concentration at 8 h (oral CNS 110 mg/kg, 8 h): 835 ± 697 ng/mL
concentration at 12 h (oral CNS 110 mg/kg, 12 h): 789 ± 937 ng/mL
concentration at 24 h (oral CNS 110 mg/kg, 24 h): 2350 ± 5830 ng/mL
concentration at 36 h (oral CNS 110 mg/kg, 36 h): 228 ± 361 ng/mL
concentration at 48 h (oral CNS 110 mg/kg, 48 h): 65 ± 82 ng/mL
concentration at 72 h (oral CNS 110 mg/kg, 72 h): 93 ± 156 ng/mL
concentration at 96 h (oral CNS 110 mg/kg, 96 h): 46 ± 53 ng/mL
concentration at 120 h (oral CNS 110 mg/kg, 120 h): 80 ± 174 ng/mL
concentration at 6 h (oral NS 60 mg/kg, 6 h): 1440 ± 1460 ng/mL
Accumulative excretion amount (oral CNS 110 mg/kg, 2 h): 1.881 ± 1.001 µg
Accumulative excretion percentage (oral CNS 110 mg/kg, 2 h): 0.066±0.032%
Excretion amount (oral CNS 110 mg/kg, 2 h): 1.881 ± 1.001 µg
Accumulative excretion amount (oral CNS 110 mg/kg, 4 h): 3.382 ± 2.188 µg
Accumulative excretion percentage (oral CNS 110 mg/kg, 4 h): 0.111±0.072%
Excretion amount (oral CNS 110 mg/kg, 4 h): 2.002 ± 1.609 µg
Accumulative excretion amount (oral CNS 110 mg/kg, 6 h): 3.994 ± 2.061 µg
Accumulative excretion percentage (oral CNS 110 mg/kg, 6 h): 0.132±0.073%
Excretion amount (oral CNS 110 mg/kg, 6 h): 0.816 ± 0.264 µg
Accumulative excretion amount (oral CNS 110 mg/kg, 8 h): 4.725 ± 2.486 µg
Accumulative excretion percentage (oral CNS 110 mg/kg, 8 h): 0.155±0.084%
Excretion amount (oral CNS 110 mg/kg, 8 h): 1.169 ± 0.913 µg
Accumulative excretion amount (oral CNS 110 mg/kg, 12 h): 5.430 ± 2.374 µg
Accumulative excretion percentage (oral CNS 110 mg/kg, 12 h): 0.188±0.080%
Excretion amount (oral CNS 110 mg/kg, 12 h): 0.805 ± 0.300 µg
Accumulative excretion amount (oral CNS 110 mg/kg, 24 h): 8.052 ± 5.572 µg
Accumulative excretion percentage (oral CNS 110 mg/kg, 24 h): 0.263±0.182%
Excretion amount (oral CNS 110 mg/kg, 24 h): 2.622 ± 5.710 µg
Accumulative excretion amount (oral CNS 110 mg/kg, 36 h): 8.388 ± 5.927 µg
Accumulative excretion percentage (oral CNS 110 mg/kg, 36 h): 0.274±0.195%
Excretion amount (oral CNS 110 mg/kg, 36 h): 0.336 ± 0.421 µg
Accumulative excretion amount (oral CNS 110 mg/kg, 48 h): 8.689 ± 6.056 µg
Accumulative excretion percentage (oral CNS 110 mg/kg, 48 h): 0.285±0.202%
Excretion amount (oral CNS 110 mg/kg, 48 h): 0.301 ± 0.361 µg
Accumulative excretion amount (oral CNS 110 mg/kg, 72 h): 8.87 ± 6.051 µg
Accumulative excretion percentage (oral CNS 110 mg/kg, 72 h): 0.293±0.206%
Excretion amount (oral CNS 110 mg/kg, 72 h): 0.185 ± 0.312 µg
Accumulative excretion amount (oral CNS 110 mg/kg, 96 h): 8.966 ± 6.090 µg
Accumulative excretion percentage (oral CNS 110 mg/kg, 96 h): 0.292±0.204%
Excretion amount (oral CNS 110 mg/kg, 96 h): 0.091 ± 0.106 µg
Accumulative excretion amount (oral CNS 110 mg/kg, 120 h): 9.027 ± 6.117 µg
Accumulative excretion percentage (oral CNS 110 mg/kg, 120 h): 0.292±0.206%
Excretion amount (oral CNS 110 mg/kg, 120 h): 0.061 ± 0.081 µg
Accumulative excretion amount (oral NS 60 mg/kg, 2 h): 4.985 ± 1.411 µg
Accumulative excretion percentage (oral NS 60 mg/kg, 2 h): 0.142±0.045%
Excretion amount (oral NS 60 mg/kg, 2 h): 4.985 ± 1.411 µg
Accumulative excretion amount (oral NS 60 mg/kg, 4 h): 6.610 ± 2.052 µg
Accumulative excretion percentage (oral NS 60 mg/kg, 4 h): 0.193±0.061%
Excretion amount (oral NS 60 mg/kg, 4 h): 2.844 ± 0.973 µg
Accumulative excretion amount (oral NS 60 mg/kg, 6 h): 9.709 ± 2.893 µg
Accumulative excretion percentage (oral NS 60 mg/kg, 6 h): 0.285±0.086%
Excretion amount (oral NS 60 mg/kg, 6 h): 3.616 ± 2.575 µg
Accumulative excretion amount (oral NS 60 mg/kg, 8 h): 11.931 ± 4.568 µg
Accumulative excretion percentage (oral NS 60 mg/kg, 8 h): 0.348±0.137%
Excretion amount (oral NS 60 mg/kg, 8 h): 3.890 ± 2.477 µg
Accumulative excretion amount (oral NS 60 mg/kg, 12 h): 15.061 ± 7.022 µg
Accumulative excretion percentage (oral NS 60 mg/kg, 12 h): 0.439±0.200%
Excretion amount (oral NS 60 mg/kg, 12 h): 3.130 ± 2.715 µg
Accumulative excretion amount (oral NS 60 mg/kg, 24 h): 15.697 ± 7.182 µg
Accumulative excretion percentage (oral NS 60 mg/kg, 24 h): 0.451±0.202%
Excretion amount (oral NS 60 mg/kg, 24 h): 0.636 ± 0.590 µg
Accumulative excretion amount (oral NS 60 mg/kg, 36 h): 16.042 ± 7.062 µg
Accumulative excretion percentage (oral NS 60 mg/kg, 36 h): 0.463±0.204%
Excretion amount (oral NS 60 mg/kg, 36 h): 0.402 ± 0.338 µg
Accumulative excretion percentage (oral NS 60 mg/kg, 48 h): 0.465±0.204%
Excretion amount (oral NS 60 mg/kg, 48 h): 0.285 ± 0.276 µg
Accumulative excretion amount (oral NS 60 mg/kg, 72 h): 16.417 ± 7.147 µg
Accumulative excretion percentage (oral NS 60 mg/kg, 72 h): 0.476±0.208%
Excretion amount (oral NS 60 mg/kg, 72 h): 0.091 ± 0.014 µg
Excretion amount (oral NS 60 mg/kg, 96 h): 0.062 ± 0.110 µg
Excretion amount (oral NS 60 mg/kg, 120 h): 0.062 ± 0.148 µg
